Source: EP0754455A1, “PHARMACEUTICAL COMPOSITIONS BASED ON AMINOMETHYLINDOLES AND THEIR THERAPEUTICAL APPLICATION AS NEUROPROTECTORS IN PARKINSON AND ALZHEIMER DISEASES” (CONSEJO SUPERIOR INVESTIGACIONES CIENTIFICAS (CSIC), priority 1995, dated 1996)
pIC50, pKi: −log10 of the molar value. Read-outs that look alike come from different tables or passages of the source.

How the values were obtained:
MAO-A [1] = target: T1, MAO-A (Rattus norvegicus, UniProt P21396); assay: biochemical; assay type: biochemical, Sprague-Dawley rat
T1 construct: human and rat tissue to obtain the isolated forms of monoamine oxidase A and B; from tissue
T1 sequence (P21396 1-526): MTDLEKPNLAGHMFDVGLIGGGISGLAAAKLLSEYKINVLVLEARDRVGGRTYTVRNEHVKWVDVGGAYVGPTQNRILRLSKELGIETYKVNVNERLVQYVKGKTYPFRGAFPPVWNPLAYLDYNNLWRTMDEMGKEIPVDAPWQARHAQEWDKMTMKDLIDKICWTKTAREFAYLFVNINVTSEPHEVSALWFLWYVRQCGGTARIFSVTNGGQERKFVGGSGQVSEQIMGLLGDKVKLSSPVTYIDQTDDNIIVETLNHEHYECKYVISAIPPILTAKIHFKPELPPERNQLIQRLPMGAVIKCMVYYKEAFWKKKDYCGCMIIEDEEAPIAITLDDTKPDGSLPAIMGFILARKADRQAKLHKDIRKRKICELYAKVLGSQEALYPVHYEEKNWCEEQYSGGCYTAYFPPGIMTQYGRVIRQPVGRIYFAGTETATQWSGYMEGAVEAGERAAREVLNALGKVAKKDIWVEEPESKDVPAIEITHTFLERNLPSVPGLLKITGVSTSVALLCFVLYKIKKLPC
Method: (§1) The mitochondrial portion of Sprague-Dawley rat was used to determine the MAO-A and MAO-B activity.
(§2) Determinations were made of the comparative MAO-A and MAO-B activity inhibition curves of the various compounds under study at time 0 and 30 min. by measuring the remaining activity to 5-HT and PEA as substrates.

MAO-A [2] = target: T1, MAO-A; assay: Kinetic parameters of suicide-type inhibition, MAO-A; assay type: biochemical, Sprague-Dawley rat; conditions: for K^1cat / K1(10^-3) / K^1cat: MAO-A; for K^1cat / K1(10^-3): inhibition efficacy; for K^1cat: velocity constant for formation of the covalent irreversible complex, ± SEM
Description: Based on the apparent velocity constants of the first order (kapp) obtained for each inhibitor, calculations were made of the K1 and K^1c at (according to the method described by M. Avila et al. 1993, Biochem Pharmac 45, 2231-2237). K1 is the affinity constant of the first stage of the reaction and K1 MAO-A / K1 MAO-B the expression of the selectivity.
(§3) K^1cat is the velocity constant for the formation of the covalent irreversible complex during the second stage of the process. To compare the values of these constants towards the two forms of MAO, we express the inhibition efficacy as the ratio K^1cat/K1. The value of these constants (see Tables 2 and 3), is the result of three different experiments, with their corresponding SEM.

MAO-B [3] = target: T2, MAO-B (Rattus norvegicus, UniProt P19643); assay: Kinetic parameters of suicide-type inhibition, MAO-B (selectivity K1 MAO-A / K1 MAO-B); assay type: biochemical, Sprague-Dawley rat; conditions: selectivity for MAO-B
T2 construct: from tissue; host or cells: Sprague-Dawley rat liver, mitochondrial fraction
T2 sequence (P19643 1-520): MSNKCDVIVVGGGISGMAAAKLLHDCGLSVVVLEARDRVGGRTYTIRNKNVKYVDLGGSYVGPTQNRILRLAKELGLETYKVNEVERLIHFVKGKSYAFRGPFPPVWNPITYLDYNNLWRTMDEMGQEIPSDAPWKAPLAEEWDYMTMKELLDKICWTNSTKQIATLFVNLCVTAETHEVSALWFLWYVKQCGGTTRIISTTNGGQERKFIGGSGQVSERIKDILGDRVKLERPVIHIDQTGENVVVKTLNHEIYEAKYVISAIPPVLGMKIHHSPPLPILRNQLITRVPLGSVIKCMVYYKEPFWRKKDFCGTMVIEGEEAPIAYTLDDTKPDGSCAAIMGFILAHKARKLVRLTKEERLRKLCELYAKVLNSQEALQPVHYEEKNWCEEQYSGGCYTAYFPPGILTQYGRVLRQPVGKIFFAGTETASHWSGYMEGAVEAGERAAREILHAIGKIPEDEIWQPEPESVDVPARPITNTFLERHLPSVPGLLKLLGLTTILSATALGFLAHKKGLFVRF
Description: K1 is the affinity constant of the first stage of the reaction and K1 MAO-A / K1 MAO-B the expression of the selectivity.
as §3

MAO-B [4] = target: T2, MAO-B; assay: MAO-B inhibition, mitochondrial portion of rat (IC50, time dependence, irreversibility), substrate PEA; assay type: biochemical, Sprague-Dawley rat; conditions: MAO-B (lines B..), substrate PEA, rat mitochondria
Method: as §1, §2

MAO-A [5] = target: T3, MAO-A (Mus musculus, UniProt Q64133); assay: Ex vivo inhibition of brain MAO-A after i.p. administration; assay type: in vivo, C57/BL mice; conditions: mouse brain homogenate 2 hours after i.p., l-deprenyl 10 mg/Kg, tested compound 4 mg/Kg
T3 construct: the brains homogenised in potassium phosphate buffer 50 mM, pH 7.2; from tissue; host or cells: C57/BL mouse brain homogenate
T3 sequence (Q64133 1-526): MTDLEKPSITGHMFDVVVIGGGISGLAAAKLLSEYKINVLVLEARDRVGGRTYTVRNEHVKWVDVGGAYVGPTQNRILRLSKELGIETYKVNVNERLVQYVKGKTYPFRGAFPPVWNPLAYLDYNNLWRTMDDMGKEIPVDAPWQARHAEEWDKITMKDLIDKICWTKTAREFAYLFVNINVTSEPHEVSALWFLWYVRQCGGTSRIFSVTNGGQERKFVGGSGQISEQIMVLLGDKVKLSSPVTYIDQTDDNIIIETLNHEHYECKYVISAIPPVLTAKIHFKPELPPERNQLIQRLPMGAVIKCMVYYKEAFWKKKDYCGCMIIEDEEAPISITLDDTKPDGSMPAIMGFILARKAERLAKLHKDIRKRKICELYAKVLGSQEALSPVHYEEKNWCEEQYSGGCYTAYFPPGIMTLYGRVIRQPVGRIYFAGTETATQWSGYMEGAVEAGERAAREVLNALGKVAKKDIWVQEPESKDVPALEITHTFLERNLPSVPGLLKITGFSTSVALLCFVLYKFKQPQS
Method: The pharmacological assays were carried out on C57/BL mice. These animals are sensitive to the induction of the symptomatology of Parkinson's disease through the action of MPTP.
The animals were sacrificed by decapitation after 2 hours and the brains homogenised in potassium phosphate buffer 50 mM, pH 7.2. Determinations were made of the MAO-A and MAO-B activity in each case using radiometric methods.

dopamine carrier = target: T4, dopamine carrier (Homo sapiens, UniProt Q01959); assay: Dopamine carrier inhibition in purified synaptosomes of human caudate; assay type: biochemical
T4 construct: This assay was carried out in purified synaptosomes of human caudate; from tissue; host or cells: post-mortem human caudate, purified synaptosomes
T4 sequence (Q01959 whole entry): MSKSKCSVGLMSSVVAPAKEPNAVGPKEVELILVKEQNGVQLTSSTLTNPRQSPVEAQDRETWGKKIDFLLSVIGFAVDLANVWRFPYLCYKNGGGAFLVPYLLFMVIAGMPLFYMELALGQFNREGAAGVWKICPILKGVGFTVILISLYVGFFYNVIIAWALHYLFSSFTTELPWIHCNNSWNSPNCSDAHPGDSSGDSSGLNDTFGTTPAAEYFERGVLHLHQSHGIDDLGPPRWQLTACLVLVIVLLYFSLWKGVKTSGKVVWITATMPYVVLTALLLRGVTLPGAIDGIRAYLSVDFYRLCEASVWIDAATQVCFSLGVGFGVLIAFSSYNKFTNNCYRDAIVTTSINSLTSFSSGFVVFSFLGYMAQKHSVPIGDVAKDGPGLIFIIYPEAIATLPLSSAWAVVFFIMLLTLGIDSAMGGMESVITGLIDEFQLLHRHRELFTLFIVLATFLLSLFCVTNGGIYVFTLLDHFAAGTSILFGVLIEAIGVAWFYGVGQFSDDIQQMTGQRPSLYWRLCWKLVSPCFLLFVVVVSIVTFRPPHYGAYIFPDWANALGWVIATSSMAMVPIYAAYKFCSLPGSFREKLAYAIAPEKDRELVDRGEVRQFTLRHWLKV
Method: This assay was carried out in purified synaptosomes of human caudate obtained using the same method as described by Rodríguez et al. 1987 Biochem Pharmac 36, 974-976.
The studies were carried out with the same inhibitors used in the rat tissue. The dopamine (DA) concentration was 0.1 µM, a value chosen from the kinetic constants obtained.

[6] = IC50 30 min., MAO-A (lines A..), substrate 5-HT, 30 min incubation, rat mitochondria
[7] = MAO-A (lines A..), substrate 5-HT, 0 min incubation, rat mitochondria, read-out: IC50 0 min
[8] = MAO-A (A..), affinity constant of the first stage, three experiments ± SEM, read-out: K1
[9] = IC50 30 min., 30 min incubation
[10] = 0 min incubation, read-out: IC50 0 min
[11] = read-out: IC50 30 min., MAO-A (lines A..), substrate 5-HT, 30 min incubation, rat mitochondria

| SMILES | pIC50 (MAO-A [1]; [6]) | pIC50 (MAO-A [1]; [7]) | pKi (MAO-A [2]; [8]) | K^1cat / K1(10^-3) (MAO-A [2]) | K^1cat (MAO-A [2]) | K1 MAO-A/K1 MAO-B (MAO-B [3]) | pIC50 (MAO-B [4]; [9]) | pIC50 (MAO-B [4]; [10]) | pIC50 (MAO-A [1]) | pIC50 (MAO-A [1]; [11]) | pKi (MAO-A [2]) | remaining activity at 4 mg/kg (MAO-A [5]; ip, control = 100%) | MAO-A ACTIVITY (MAO-A [5]; control 485) | pIC50 (dopamine carrier) |
| --- | --- | --- | --- | --- | --- | --- | --- | --- | --- | --- | --- | --- | --- | --- |
| CC#CCN(CC#CC)Cc1cc2cc(OCc3ccccc3)ccc2[nH]1 [FA-77] | 5.30 | 4.41 | 5.19 | 0.014 10^-3 | 0.09 ± 0.002 min⁻¹ | 41.5 | 8.00 | 4.60 |  |  |  |  |  |  |
| C=C=CCNCc1cc2cc(OCc3ccccc3)ccc2n1C [FA-97] | 7.60 | 6.70 | 7.73 | 6.0 10^-3 | 0.12 ± 0.002 min⁻¹ |  | 7.92 | 6.10 |  |  |  |  |  |  |
| C#CCN(CC#C)Cc1cc2cc(OCc3ccccc3)ccc2n1C [FA-98] | 4.51 |  | 7.70 | 5.6 10^-3 | 0.11 ± 0.01 min⁻¹ | 873.5 | 5.60 | 4.71 |  |  |  |  |  |  |
| C#CCN(C)Cc1cc2cc(OCc3ccccc3)ccc2n1C [FA-65] |  |  |  |  |  |  |  |  | 5.82 | 7.00 | 7.74 |  |  |  |
| CC#CCN(C)Cc1cc2cc(OCc3ccccc3)ccc2[nH]1 [FA-88] |  |  |  |  | 0.04 ± 0.001 min⁻¹ |  |  |  | 5.80 | 6.82 | 7.86 |  |  |  |
| C=C=CCNCc1cc2cc(OCc3ccccc3)ccc2[nH]1 [FA-75] | 6.60 | 5.40 | 6.46 | 0.47 10^-3 | 0.16 ± 0.02 min⁻¹ | 63.0 | 7.60 | 6.40 |  |  |  |  |  |  |
| C=C=CCN(C)Cc1cc2cc(OCc3ccccc3)ccc2n1C [FA-67] |  |  |  |  |  |  |  |  | 5.60 | 6.72 | 7.58 |  |  |  |
| C#CCN(C)Cc1cc2cc(OCc3ccccc3)ccc2[nH]1 [FA-87] |  |  |  |  |  |  |  |  | 6.20 | 9.10 | 7.26 |  |  |  |
| C=C=CCN(CC=C=C)Cc1cc2cc(OCc3ccccc3)ccc2[nH]1 [FA-78] | 5.20 | 3.92 | 4.85 | 0.014 10^-3 | 0.2 ± 0.04 min⁻¹ | 913.6 | 6.72 | 5.51 |  |  |  |  |  |  |
| CC#CCNCc1cc2cc(OCc3ccccc3)ccc2[nH]1 [FA-74] | 5.00 | 4.20 | 5.28 | 0.04 10^-3 | 0.21 ± 0.1 min⁻¹ | 276.4 | 6.60 | 5.80 |  |  |  |  |  |  |
| C#CCN(C)[C@H](C)Cc1ccccc1 [deprenyl, reference compound] |  |  |  |  | 0.049 ± 0.01 min⁻¹ |  |  |  |  |  |  | 52.5% | 255 | 7.00 |
| CC#CCN(C)Cc1cc2cc(OCc3ccccc3)ccc2n1C [FA-66] |  |  |  |  |  |  |  |  | 5.90 | 6.82 | 8.27 |  |  |  |
